Assay results reported in ChEMBL document CHEMBL5550142, “From lab to nature: Recent advancements in the journey of gastroprotective agents from medicinal chemistry to phytotherapy” (Eur J Med Chem, 2024).
Values after ≈ are worked out from the molar mass of the structure shown. Values belong to the compound of their own block, whether it stands above or below them.

Legend:
[1] = Inhibition of Hydrogen potassium ATPase (unknown origin); design: species or system Homo sapiens
[2] = target: T1, Polyunsaturated fatty acid lipoxygenase ALOX15 (Homo sapiens, UniProt P16050); assay: Inhibition of 15-LOX (unknown origin)
T1 sequence (P16050 whole entry): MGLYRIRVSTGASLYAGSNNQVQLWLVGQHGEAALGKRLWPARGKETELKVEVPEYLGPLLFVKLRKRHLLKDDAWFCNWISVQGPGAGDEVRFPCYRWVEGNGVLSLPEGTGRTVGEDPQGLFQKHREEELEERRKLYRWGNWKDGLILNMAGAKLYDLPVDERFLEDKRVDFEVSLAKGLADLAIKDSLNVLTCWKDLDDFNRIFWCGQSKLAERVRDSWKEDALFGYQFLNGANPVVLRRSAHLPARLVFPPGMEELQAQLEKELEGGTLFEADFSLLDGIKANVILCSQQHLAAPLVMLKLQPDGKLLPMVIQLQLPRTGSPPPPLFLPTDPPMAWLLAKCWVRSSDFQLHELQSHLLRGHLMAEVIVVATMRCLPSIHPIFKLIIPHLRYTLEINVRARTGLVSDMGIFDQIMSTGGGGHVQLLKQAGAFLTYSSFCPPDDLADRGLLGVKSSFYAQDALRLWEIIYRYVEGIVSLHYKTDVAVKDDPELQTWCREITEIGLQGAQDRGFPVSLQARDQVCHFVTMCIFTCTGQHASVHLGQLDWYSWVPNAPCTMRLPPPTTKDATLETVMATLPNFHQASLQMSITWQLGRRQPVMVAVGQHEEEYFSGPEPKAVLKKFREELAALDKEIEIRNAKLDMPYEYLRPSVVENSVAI

Rattus norvegicus [3] = assay: Gastric ulcerogenic activity in ethanol-induced rat model assessed as reduction in mucosal damage at 50 mg/kg, po relative to control; assay type: functional; design: scale not given: the % may be the effect or the level left
Mus musculus = assay: Anti-ulcerogenic activity in ethanol-induced gastric ulcer mouse model assessed as reduction in ulcer formation at 350 mg/kg; assay type: functional; design: scale not given: the % may be the effect or the level left
[4] = target: T2, Gastrin/cholecystokinin type B receptor (Homo sapiens, UniProt P32239); assay: Antagonist activity at human CCKBR; assay type: functional
T2 sequence (P32239 whole entry): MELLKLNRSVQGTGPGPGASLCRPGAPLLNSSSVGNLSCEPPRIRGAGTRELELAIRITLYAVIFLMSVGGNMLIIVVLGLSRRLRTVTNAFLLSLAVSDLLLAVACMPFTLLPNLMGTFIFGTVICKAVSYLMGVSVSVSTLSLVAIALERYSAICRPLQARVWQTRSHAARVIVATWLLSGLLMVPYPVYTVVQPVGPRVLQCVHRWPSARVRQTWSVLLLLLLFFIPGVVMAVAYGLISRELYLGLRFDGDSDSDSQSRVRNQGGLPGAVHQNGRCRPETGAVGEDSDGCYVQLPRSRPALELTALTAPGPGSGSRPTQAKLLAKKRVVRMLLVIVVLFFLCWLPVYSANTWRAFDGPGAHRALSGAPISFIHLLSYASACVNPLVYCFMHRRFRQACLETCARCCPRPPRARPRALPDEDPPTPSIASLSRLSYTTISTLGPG

Rattus norvegicus [5] = assay: Protection against stress-induced Wistar rat model assessed as inhibition of gastric lesion at 500 ug/kg, po measured after 6 hrs relative to control; assay type: functional; design: scale not given: the % may be the effect or the level left
[6] = Acute toxicity in po dosed mouse assessed as lethal dose; assay type: organism-based; conditions: in vivo
Helicobacter pylori [7] = assay: Antibacterial activity against Helicobacter pylori NCTC 11637 assessed as reduction in bacterial growth incubated for 24 hrs by broth micro-dilution method; assay type: functional
Helicobacter pylori [8] = assay: Antibacterial activity against Helicobacter pylori ATCC 43504 assessed as reduction in bacterial growth incubated for 24 hrs by broth micro-dilution method; assay type: functional
Rattus norvegicus [9] = assay: Gastric ulcerogenic activity in ethanol-induced rat model assessed as reduction in gastric lesion at 10 mg/kg, po relative to control; assay type: functional; design: scale not given: the % may be the effect or the level left
Rattus norvegicus [10] = assay: Gastric ulcerogenic activity in ethanol-induced rat model assessed as reduction in gastric lesion at 5 mg/kg, po relative to control; assay type: functional; design: scale not given: the % may be the effect or the level left

- IC50 [1]: 42.41 µg/mL (≈ 151 µM)
- IC50 [2]: 8.15 µM
SMILES: Clc1ccc(-c2cc(-c3ccco3)no2)c(Cl)c1

- IC50 [4]: 31.9 µM
SMILES: CCCc1ccc([C@H]2N[C@@H](C(=O)OC)Cc3c2[nH]c2ccccc32)cc1
- Activity (Rattus norvegicus [3]): 81.2%
- Activity (Mus musculus): 81.2%

SMILES: O=C(CSc1nc2ccccc2[nH]1)n1nc(Nc2ccc(O)cc2)cc1-c1ccccc1
- Activity (Rattus norvegicus [5]): 83.1%

SMILES: COc1cc(/C=N/NC(=O)Cc2ccccc2Nc2c(Cl)cccc2Cl)cc(OC)c1O
- LD50 [6]: 168 mg/kg

- MIC (Helicobacter pylori [7]): 4 µg/mL (≈ 24.6 µM)
- MIC (Helicobacter pylori [8]): 6 µg/mL (≈ 37 µM)
SMILES: C=CCS[S+]([O-])CC=C (stereo unspecified) [ALLICIN]

SMILES: CCc1c(O)c(O)c2c(c1O)C(=O)C(O)=C(O)C2=O
- Activity (Rattus norvegicus [9]): 75.5%
- Activity (Rattus norvegicus [10]): 73.51%
